Measured values from PubChem BioAssay AID2060497 (Molecular Pharmacology Branch, DTP, NCI, 2025).

Test system: 317291-083-R-J1-PDC complex spheroids, viability
Assay: Anticancer human tumor 317291-083-R-J1-PDC patient-derived soft tissue sarcoma cell line growth inhibition [GQUAD]
Details: for IC50: curve of first compound; for viability, T/C: stronger effect = lower value; active = viability on the fitted dose curve at most 10% of control; inactive = the rest
From the text: DNA G-quadruplex Stabilizer Agents in Combinations in Complex Spheroids
A high-throughput screen of multi-cell type tumor spheroids was designed to identify active combinations of DNA G-quadruplex stabilizer agents and targeted small molecules. Complex spheroids include a stromal component modeled by human endothelial cells (HUVEC) and fibroblasts modeled by human mesenchymal stem cells (MSCs). The concentration ranges selected for each drug and investigational agent were based upon clinically achievable concentrations if the clinical Cmax of the agent was known.
Compounds. The drugs and investigational agents: pidnarulex (CX-5461; NSC782164), APTO-253 (NSC789042), BRACO-19 (NSC847499), peposertib (NSC802822), ceralasertib (NSC780249), elimusertib (NSC800525), camonsertib (NSC841442), AZD-1390 (NSC803789), olaparib (NSC753686), talazoparib (NSC767125), ART-558 (NSC835418), sotorasib (NSC818433), MRTX-1133 (NSC836407), SN-38 (NSC673596), topotecan (NSC609699), etoposide (NSC141540), doxorubicin (NSC123127), gemcitabine (NSC613327), 5-fluorouracil (NSC19893), paclitaxel (NSC125973), vemurafenib (NSC761431), panobinostat (NSC761190), R-306465 (JNJ-16241199; NSC773264), adavosertib (NSC754352), TP-3654 (NSC805149), carboplatin (NSC241240), KSQ-4279 (NSC840948), and staurosporine (NSC755774) were obtained from the National Cancer Institute (NCI) Developmental Therapeutics Program Chemical Repository (34). The FDA-approved anticancer drug set is available from the NCI Developmental Therapeutics Program. […] The stock solutions were prepared in dimethyl sulfoxide (DMSO, Sigma-Aldrich, St. Louis, MO, cat. D2650) at 800-fold the tested concentration and stored at -70 degrees C prior to their use. All drugs and investigational agents were tested over a range starting from a high concentration at or near the clinical Cmax and decreasing in half-log increments. If the clinical Cmax for an agent had not been determined, the highest concentration tested was 10 microM.
2.3 Cell Culture. All cells were maintained in an incubator at 37 degrees C and 5% CO2 with 95% humidity. The PDC lines were cultured according to standard operating procedures established by the NCI PDMR. All PDCs were thawed and cultured in Matrigel-coated flasks prepared with a working solution of 1X Ham's F-12 nutrient mix, without supplementation (Invitrogen, cat. 11765054), 100 U/mL penicillin-streptomycin (Invitrogen, cat. 15140122), and 2.5% Matrigel (Corning Inc., cat. 354248) for the first three passages. The 857933-349-R-J2-PDC line was cultured in 6C/Colon 1B media, which includes advanced DMEM/F-12 (Thermo Fisher Scientific, cat. 12634028), 10 mM HEPES (Thermo Fisher Scientific, cat. 15630080), 1X GlutaMAX supplement (Thermo Fisher Scientific, cat. 35050061), 0.1 mg/mL primocin (InvivoGen, cat. ant-pm-2), 10% defined fetal bovine serum, heat inactivated (HyClone Laboratories Inc., cat. SH30070.03HI), 50% L-WRN conditioned media (ATCC, cat. CRL-3276), 1.25 mM N-Acetyl-L-cysteine (Sigma-Aldrich, cat. A9165), 10 mM nicotinamide (Sigma-Aldrich, cat. N0636), 1X B-27 supplement (Thermo Fisher Scientific, cat. 17504044), 1X N-2 supplement (Thermo Fisher Scientific, cat. 17502048), 10 microM Y-27632 dihydrochloride (Tocris Bioscience, cat. 1254), and 50 ng/mL human EGF recombinant protein (Thermo Fisher Scientific, cat. PHG0311). The 485176-168-R4-J1-PDC line was cultured in Panc media, which includes all 6C/Colon 1B media components plus 100 ng/mL human FGF-10 (Thermo Fisher Scientific, cat. 100-26), 500 nM SB-431542 (Selleckchem, cat. S1067), and gastrin (Tocris, cat. 3006).
[…]

[1] = second compound 0.0316 µM, first compound 0.0316 µM
[2] = second compound 0.0316 µM, first compound 0.316 µM
[3] = second compound 0.1 µM, first compound 0.0316 µM
[4] = second compound 0.1 µM, first compound 0.316 µM
[5] = second compound 0.316 µM, first compound 0.0316 µM
[6] = second compound 0.316 µM, first compound 0.316 µM
[7] = second compound 1 µM, first compound 0.0316 µM
[8] = second compound 1 µM, first compound 0.316 µM
[9] = second compound 3.16 µM, first compound 0.0316 µM
[10] = second compound 3.16 µM, first compound 0.316 µM
[11] = second compound 10 µM, first compound 0.0316 µM
[12] = second compound 10 µM, first compound 0.316 µM
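Note: spheroids exposed to compounds for one week before readout.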
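Throughout, for viability, T/C: percent viability relative to DMSO vehicle wells taken as 100%.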

CCCS(=O)(=O)Nc1ccc(F)c(C(=O)c2c[nH]c3ncc(-c4ccc(Cl)cc4)cc23)c1F + CN(C)c1ccc(Nc2c3ccc(NC(=O)CCN4CCCC4)cc3nc3cc(NC(=O)CCN4CCCC4)ccc23)cc1
684 nM: IC50 (second compound 0.316 µM)
4160 nM: IC50 (second compound 0.0316 µM)
active: viability, T/C [9] 5.58% | viability, T/C (second compound 3.16 µM, first compound 0.1 µM) 0.71% | viability, T/C [10] 9.21% | viability, T/C (second compound 3.16 µM, first compound 1 µM) 1.39% | viability, T/C (second compound 3.16 µM, first compound 3.16 µM) 4.27% | viability, T/C (second compound 3.16 µM, first compound 10 µM) 1.07% | viability, T/C [11] 0.47% | viability, T/C (second compound 10 µM, first compound 0.1 µM) 0.37% | viability, T/C [12] 0.54% | viability, T/C (second compound 10 µM, first compound 1 µM) 2.11% | viability, T/C (second compound 10 µM, first compound 3.16 µM) 0.46% | viability, T/C (second compound 10 µM, first compound 10 µM) 0.51%
< 31.6 nM: IC50 (second compound 1 µM) | IC50 (second compound 3.16 µM) | IC50 (second compound 10 µM)
3840 nM: IC50 (second compound 0.1 µM)
inactive: viability, T/C [1] 121% | viability, T/C (second compound 0.0316 µM, first compound 0.1 µM) 107% | viability, T/C [2] 108% | viability, T/C (second compound 0.0316 µM, first compound 1 µM) 102% | viability, T/C (second compound 0.0316 µM, first compound 3.16 µM) 60.4% | viability, T/C (second compound 0.0316 µM, first compound 10 µM) 15.4% | viability, T/C [3] 106% | viability, T/C (second compound 0.1 µM, first compound 0.1 µM) 99.9% | viability, T/C [4] 82.9% | viability, T/C (second compound 0.1 µM, first compound 1 µM) 87.1% | viability, T/C (second compound 0.1 µM, first compound 3.16 µM) 56.9% | viability, T/C (second compound 0.1 µM, first compound 10 µM) 13.6% | viability, T/C [5] 86.6% | viability, T/C (second compound 0.316 µM, first compound 0.1 µM) 72.3% | viability, T/C [6] 56.3% | viability, T/C (second compound 0.316 µM, first compound 1 µM) 49.2% | viability, T/C (second compound 0.316 µM, first compound 3.16 µM) 30.6% | viability, T/C (second compound 0.316 µM, first compound 10 µM) 14.1% | viability, T/C [7] 45.6% | viability, T/C (second compound 1 µM, first compound 0.1 µM) 25.1% | viability, T/C [8] 38.2% | viability, T/C (second compound 1 µM, first compound 1 µM) 30.3% | viability, T/C (second compound 1 µM, first compound 3.16 µM) 28.7% | viability, T/C (second compound 1 µM, first compound 10 µM) 6.94%

CCc1c2c(nc3ccc(O)cc13)-c1cc3c(c(=O)n1C2)COC(=O)[C@]3(O)CC + CN(C)c1ccc(Nc2c3ccc(NC(=O)CCN4CCCC4)cc3nc3cc(NC(=O)CCN4CCCC4)ccc23)cc1
1.31 nM: IC50 (second compound 0.0316 µM)
active: viability, T/C [1] 10.1% | viability, T/C (second compound 0.0316 µM, first compound 0.0999 µM) 7.96% | viability, T/C [2] 5.2% | viability, T/C (second compound 0.1 µM, first compound 0.0999 µM) 9.19% | viability, T/C [4] 5.38% | viability, T/C (second compound 0.316 µM, first compound 0.0999 µM) 8.7% | viability, T/C [6] 5.23% | viability, T/C (second compound 1 µM, first compound 0.00999 µM) 10.4% | viability, T/C [7] 5.97% | viability, T/C (second compound 1 µM, first compound 0.0999 µM) 7.46% | viability, T/C [8] 3.88% | viability, T/C (second compound 3.16 µM, first compound 0.00999 µM) 7.45% | viability, T/C [9] 4.96% | viability, T/C (second compound 3.16 µM, first compound 0.0999 µM) 4.76% | viability, T/C [10] 2.38% | viability, T/C (second compound 10 µM, first compound 0.000999 µM) 8.21% | viability, T/C (second compound 10 µM, first compound 0.00316 µM) 7.57% | viability, T/C (second compound 10 µM, first compound 0.00999 µM) 4.2% | viability, T/C [11] 2.29% | viability, T/C (second compound 10 µM, first compound 0.0999 µM) 2.45% | viability, T/C [12] 2.41%
inactive: viability, T/C (second compound 0.0316 µM, first compound 0.000999 µM) 58% | viability, T/C (second compound 0.0316 µM, first compound 0.00316 µM) 24.2% | viability, T/C (second compound 0.0316 µM, first compound 0.00999 µM) 15.7% | viability, T/C (second compound 0.1 µM, first compound 0.000999 µM) 65.8% | viability, T/C (second compound 0.1 µM, first compound 0.00316 µM) 28.6% | viability, T/C (second compound 0.1 µM, first compound 0.00999 µM) 17.5% | viability, T/C [3] 10.9% | viability, T/C (second compound 0.316 µM, first compound 0.000999 µM) 48.7% | viability, T/C (second compound 0.316 µM, first compound 0.00316 µM) 24.2% | viability, T/C (second compound 0.316 µM, first compound 0.00999 µM) 15.5% | viability, T/C [5] 13.7% | viability, T/C (second compound 1 µM, first compound 0.000999 µM) 28.4% | viability, T/C (second compound 1 µM, first compound 0.00316 µM) 15.4% | viability, T/C (second compound 3.16 µM, first compound 0.000999 µM) 20.7% | viability, T/C (second compound 3.16 µM, first compound 0.00316 µM) 9.56%
< 0.999 nM: IC50 (second compound 0.316 µM) | IC50 (second compound 1 µM) | IC50 (second compound 3.16 µM) | IC50 (second compound 10 µM)
1.65 nM: IC50 (second compound 0.1 µM)
